Test results: US20250011318A1 (ARCUS BIOSCIENCES, INC., priority 2023, published 2025)

Legend:
Jurkat cells = test: IL-2 secretion assay in CD3/CD28-activated Jurkat cells (AlphaLISA); format: cell-based, human; conditions: Homo sapiens, CD3/CD28 T Cell Activator, 24 h, IL-2 AlphaLISA
Protocol: Certain compounds were also evaluated in an IL-2 secretion assay. On the day of the assay, a 16 point, 1:2 master serial dilution of each compound was prepared in Opti-MEM to span a final concentration range of 10 μM to 300 pM. Assays were setup in CORNING® tissue culture-treated 384-well microplates containing 60 nL of each dilution. Jurkat cells grown in RPMI-1640 supplemented with 10% FBS, 1% Glutamax, and 1% Pen/Strep were collected, resuspended in Opti-MEM. 50,000 cells/well and added to the compound plates. After a short spin (1200 rpm for 1 min), the plates were incubated at 37° C. for 1 hour. The cells were activated by adding 15 μL of IMUNOCULT™ Human CD3/CD28 T Cell Activator (STEMCELL Technologies) diluted in Opti-MEM. After 24 h of incubation at 37° C., aliquots of culture supernatants were transferred to OptiPlate-384 (PerkinElmer) microplates. The level of IL-2 secretion in the supernatants was then determined using the IL-2 (human) AlphaLISA Detection Kit (PerkinElmer) according to the manufacturer's recommendations. The AlphaLISA signal was measured using an EnVision plate reader (PerkinElmer). EC50 values were determined by fitting the data to a standard 4-parameter logistic equation. See Table 3 for data for select compounds (IL-2 Secretion (EC50)).

Cbl-b = target: T1, Cbl-b (Homo sapiens, UniProt Q13191); test: Cbl-b probe displacement HTRF binding assay; conditions: 0.4 nM biotinylated Cbl-b, 150 nM BODIPY probe
T1 construct: biotin (biotinylated)
T1 sequence (Q13191 whole entry, species assumed): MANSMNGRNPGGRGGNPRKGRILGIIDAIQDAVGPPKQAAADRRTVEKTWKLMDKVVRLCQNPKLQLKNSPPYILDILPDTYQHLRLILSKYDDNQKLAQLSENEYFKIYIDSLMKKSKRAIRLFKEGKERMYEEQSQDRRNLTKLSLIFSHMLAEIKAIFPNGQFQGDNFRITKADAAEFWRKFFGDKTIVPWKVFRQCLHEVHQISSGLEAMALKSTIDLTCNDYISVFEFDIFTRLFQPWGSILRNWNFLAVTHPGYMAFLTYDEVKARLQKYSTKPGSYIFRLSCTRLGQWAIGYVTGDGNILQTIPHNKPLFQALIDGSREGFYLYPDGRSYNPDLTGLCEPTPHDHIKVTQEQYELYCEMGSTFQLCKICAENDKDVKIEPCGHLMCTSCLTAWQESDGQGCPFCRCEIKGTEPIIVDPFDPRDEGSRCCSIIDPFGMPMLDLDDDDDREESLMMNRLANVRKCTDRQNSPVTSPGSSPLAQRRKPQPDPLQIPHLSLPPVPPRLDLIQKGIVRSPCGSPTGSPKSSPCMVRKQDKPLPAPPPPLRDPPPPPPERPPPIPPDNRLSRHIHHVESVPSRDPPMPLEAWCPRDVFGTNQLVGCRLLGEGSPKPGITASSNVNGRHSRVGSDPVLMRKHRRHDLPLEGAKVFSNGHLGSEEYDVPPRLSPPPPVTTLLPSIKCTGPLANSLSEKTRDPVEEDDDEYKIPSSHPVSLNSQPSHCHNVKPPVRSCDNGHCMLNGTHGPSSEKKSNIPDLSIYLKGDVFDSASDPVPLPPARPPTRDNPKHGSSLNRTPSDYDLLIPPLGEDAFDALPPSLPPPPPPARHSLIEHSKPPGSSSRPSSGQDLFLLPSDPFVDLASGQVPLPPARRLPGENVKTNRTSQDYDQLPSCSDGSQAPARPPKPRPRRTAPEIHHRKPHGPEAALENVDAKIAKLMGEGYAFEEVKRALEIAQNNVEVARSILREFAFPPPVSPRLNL
Protocol: The affinity with which compounds of the present disclosure bind to Cbl-b was assessed using probe displacement homologous time resolved fluorescence (HTRF) assays. The assays used a BODIPY™ conjugated probe (Example 54 from WO 2020264398) and biotinylated Cbl-b. The assays were performed in assay buffer consisting of 20 mM Hepes, 150 mM NaCl, 0.01% Triton X-100, 0.5 mM TCEP, 0.01% BSA. On the day of the assay, a 20 point, 1:2 master serial dilution of each compound was prepared in DMSO to span a final concentration range of 10 μM to 0 nM. Two hundred nanoliters of diluted compound was added to each well of a 384-well plate. Fifteen microliters of biotinylated—Cbl-b resuspended in assay buffer were added to each well and the plate incubated for 60 minutes at room temperature prior to addition of 5 μL of BODIPY™ probe in assay buffer. Final assay conditions included 0.4 nM of Cbl-b and 150 nM of BODIPY™ probe. After a further 15 minutes of incubation at room temperature, 5 μl of Streptavidin-Terbium cryptate reagent at 5-fold final concentration was added to each well of the 384-well plate. Binding of a probe to Cbl-b results in an increase of HTRF signal. HTRF signal was measured by Envision plate reader, while competition of a compound of the present disclosure with probe results in a decrease of signal. Percentage maximum activity in each test well was calculated based on DMSO (maximum activity, 0% displacement) and no protein control wells (baseline activity, 100% displacement). Binding affinity was determined from a dose response curve fitted using a standard four parameter fit equation. See Table 3 for data for compounds (Cbl-b Binding (IC50)).

| EC50 (Jurkat cells) [nM] | IC50 (Cbl-b) [nM] | Structure (SMILES) |
| --- | --- | --- |
| < 100 | < 100 | Cn1ccnc1-c1cc(F)ccc1-c1cc(C2CC2)nc(-n2cc(C3CC3)c3cc(CN[C@@H]4CCCOC4)[nH]c3c2=O)c1 [Example 57, 2-{[(R)-tetrahydro-2H-pyran-3-ylamino]methyl}-4-cyclopropyl-6-{6-cyclopropyl-4-[4-fluoro-2-(1-methyl-2-imidazolyl)phenyl]-2-pyridyl}-1,6-dihydro-1,6-diaza-7-indenone] |
| < 100 | < 100 | Cc1ccnnc1-c1cc(C#N)ccc1-c1cc(C2CC2)nc(-n2cc(C3CC3)c3cc(CNC4(C)CCC4)[nH]c3c2=O)c1 [Example 75, 4-[2-Cyclopropyl-6-[4-cyclopropyl-2-[[(1-methylcyclobutyl)amino]methyl]-7-oxo-1H-pyrrolo[2,3-c]pyridin-6-yl]pyridin-4-yl]-3-(4-methylpyridazin-3-yl)benzonitrile] |
| < 100 | < 100 | C[C@H]1CCCN(Cc2cc3c(C4CC4)cn(-c4cc(-c5ccc(C#N)cc5-c5nncn5C(F)F)cc(C5CC5)n4)c(=O)c3[nH]2)C1 [Example 69, 4-[2-(2-{[(S)-3-methyl-1-piperidyl]methyl}-4-cyclopropyl-7-oxo-1,6-dihydro-1,6-diaza-6-indenyl)-6-cyclopropyl-4-pyridyl]-3-[4-(difluoromethyl)-4H-1,2,4-triazol-3-yl]benzonitrile] |
| < 100 | < 100 | COC[C@H](C)NCc1cc2ncn(-c3cc(-c4ccc(F)cc4-c4nc(C#N)cn4C)cc(C4CC4)n3)c(=O)c2[nH]1 [Example 111, 2-[2-[2-cyclopropyl-6-[6-[[[(2S)-1-methoxypropan-2-yl]amino]methyl]-4-oxo-5H-pyrrolo[3,2-d]pyrimidin-3-yl]pyridin-4-yl]-5-fluorophenyl]-1-methylimidazole-4-carbonitrile] |
| < 100 | < 100 | C[C@@H](c1nc2c(C(F)(F)F)cn(-c3cc(-c4ccc(F)cc4-c4nncn4C)cc(C4CC4)n3)c(=O)c2[nH]1)C1CC1 [Example 46, 2-[(1R)-1-cyclopropylethyl]-5-[6-cyclopropyl-4-[4-fluoro-2-(4-methyl-1,2,4-triazol-3-yl)phenyl]pyridin-2-yl]-7-(trifluoromethyl)-3H-imidazo[4,5-c]pyridin-4-one] |
| < 100 | < 100 | Cn1cnnc1-c1cc(F)ccc1-c1cc(C2CC2)nc(-n2cnc3cc(C(O)C4CCCC4)[nH]c3c2=O)c1 (stereo not drawn) [Example 126, 6-[cyclopentyl(hydroxy)methyl]-3-[6-cyclopropyl-4-[4-fluoro-2-(4-methyl-1,2,4-triazol-3-yl)phenyl]pyridin-2-yl]-5H-pyrrolo[3,2-d]pyrimidin-4-one] |
| < 100 | < 100 | Cn1cc(C#N)nc1-c1cc(F)ccc1-c1cc(C2CC2)nc(-n2cnc3cc(CNCCC(F)(F)F)[nH]c3c2=O)c1 [Example 112, 2-[2-[2-cyclopropyl-6-[4-oxo-6-[(3,3,3-trifluoropropylamino)methyl]-5H-pyrrolo[3,2-d]pyrimidin-3-yl]pyridin-4-yl]-5-fluorophenyl]-1-methylimidazole-4-carbonitrile] |
| – | < 100 | CO[C@@H](C)CN(C)Cc1cc2ncn(-c3cc(-c4ccc(F)cc4-c4nc(C#N)cn4C)cc(C4CC4)n3)c(=O)c2[nH]1 [Example 113, 2-[2-[2-cyclopropyl-6-[6-[[[(2S)-2-methoxypropyl]-methylamino]methyl]-4-oxo-5H-pyrrolo[3,2-d]pyrimidin-3-yl]pyridin-4-yl]-5-fluorophenyl]-1-methyl-imidazole-4-carbonitrile] |
| 100 to 1000 | < 100 | C[C@@H]1CN(Cc2cc3c(C4CC4)cn(-c4cc(-c5ccc(F)cc5-c5nccn5C)cc(C#N)n4)c(=O)c3[nH]2)CCO1 [Example 63, 6-(2-{[(R)-2-methyl-4-morpholinyl]methyl}-4-cyclopropyl-7-oxo-1,6-dihydro-1,6-diaza-6-indenyl)-4-[4-fluoro-2-(1-methyl-2-imidazolyl)phenyl]-2-pyridinecarbonitrile] |
| 100 to 1000 | < 100 | C[C@H]1CCCN(Cc2cc3c(C4CC4)cn(-c4cc(-c5ccc(F)cc5-c5nncn5C)ccn4)c(=O)c3[nH]2)C1 [Example 12, 2-{[(S)-3-Methyl-1-piperidyl]methyl}-4-cyclopropyl-6-{4-[4-fluoro-2-(4-methyl-4H-1,2,4-triazol-3-yl)phenyl]-2-pyridyl}-1,6-dihydro-1,6-diaza-7-indenone] |
| – | < 100 | C[C@H]1CCCN(Cc2cc3c(C4CC4)cn(-c4cc(-c5ccc(F)cc5-c5nncn5C)cc(C5CC5)n4)c(=O)c3[nH]2)C1 [Example 10, 2-{[(S)-3-Methyl-1-piperidyl]methyl}-4-cyclopropyl-6-{6-cyclopropyl-4-[4-fluoro-2-(4-methyl-4H-1,2,4-triazol-3-yl)phenyl]-2-pyridyl}-1,6-dihydro-1,6-diaza-7-indenone] |
| – | < 100 | CO[C@@H](C)CNCc1nc2c(C(F)(F)F)cn(-c3cc(-c4ccc(F)cc4-c4ncoc4C)cc(C4CC4)n3)c(=O)c2[nH]1 [Example 49, 2-{[(S)-2-methoxypropylamino]methyl}-5-{6-cyclopropyl-4-[4-fluoro-2-(5-methyl-1,3-oxazol-4-yl)phenyl]-2-pyridyl}-7-(trifluoromethyl)-3,5-dihydro-1,3,5-triaza-4-indenone] |
| – | < 100 | COCCNCc1cc2ncn(-c3cc(-c4ccc(C#N)cc4-c4ncoc4C)cc(C4CC4)n3)c(=O)c2[nH]1 [Example 72, 4-(6-cyclopropyl-2-{2-[(2-methoxyethylamino)methyl]-7-oxo-1,6-dihydro-1,4,6-triaza-6-indenyl}-4-pyridyl)-3-(5-methyl-1,3-oxazol-4-yl)benzonitrile] |
| – | < 100 | COCCNCc1cc2ncn(-c3cc(-c4ccc(F)cc4-c4ncoc4C)cc(C4CC4)n3)c(=O)c2[nH]1 [Example 78, 6-{6-cyclopropyl-4-[4-fluoro-2-(5-methyl-1,3-oxazol-4-yl)phenyl]-2-pyridyl}-2-[(2-methoxyethylamino)methyl]-1,6-dihydro-1,4,6-triaza-7-indenone] |
| – | < 100 | COC[C@H](C)NCc1cc2ncn(-c3cc(-c4ccc(F)cc4-c4ncoc4C)cc(C4CC4)n3)c(=O)c2[nH]1 [Example 79, 2-{[(S)-2-methoxy-1-methylethylamino]methyl}-6-{6-cyclopropyl-4-[4-fluoro-2-(5-methyl-1,3-oxazol-4-yl)phenyl]-2-pyridyl}-1,6-dihydro-1,4,6-triaza-7-indenone] |
| – | < 100 | C[C@H]1CCCN(Cc2cc3c(C4CC4)cn(-c4cc(-c5ccc(C#N)cc5-c5nccn5C)cc(C5CC5)n4)c(=O)c3[nH]2)C1 [Example 13, 4-[2-(2-{[(S)-3-methyl-1-piperidyl]methyl}-4-cyclopropyl-7-oxo-1,6-dihydro-1,6-diaza-6-indenyl)-6-cyclopropyl-4-pyridyl]-3-(1-methyl-2-imidazolyl)benzonitrile] |
| – | < 100 | CCOCCNCc1cc2ncn(-c3cc(-c4ccc(F)cc4-c4ncoc4C)cc(C4CC4)n3)c(=O)c2[nH]1 [Example 80, 6-{6-cyclopropyl-4-[4-fluoro-2-(5-methyl-1,3-oxazol-4-yl)phenyl]-2-pyridyl}-2-[(2-ethoxyethylamino)methyl]-1,6-dihydro-1,4,6-triaza-7-indenone] |

| Structure (SMILES) | EC50 (Jurkat cells) [nM] | IC50 (Cbl-b) [nM] |
| --- | --- | --- |
| C[C@H]1CCCN(Cc2cc3c(S(C)(=O)=O)cn(-c4cc(-c5ccc(C#N)cc5-c5nccn5C)cc(C5CC5)n4)c(=O)c3[nH]2)C1 [Example 99, 4-[2-(2-{[(S)-3-methyl-1-piperidyl]methyl}-4-mesyl-7-oxo-1,6-dihydro-1,6-diaza-6-indenyl)-6-cyclopropyl-4-pyridyl]-3-(1-methyl-2-imidazolyl)benzonitrile] | < 100 | < 100 |
| CC1(NCc2cc3c(C4CC4)cn(-c4cc(-c5ccc(C#N)cc5-c5ncccc5C(F)(F)F)cc(C5CC5)n4)c(=O)c3[nH]2)CCC1 [Example 73, 4-(6-cyclopropyl-2-{4-cyclopropyl-2-[(1-methylcyclobutylamino)methyl]-7-oxo-1,6-dihydro-1,6-diaza-6-indenyl}-4-pyridyl)-3-[3-(trifluoromethyl)-2-pyridyl]benzonitrile] | 100 to 1000 | < 100 |
